One test addresses T1, KPC-2 (Klebsiella pneumoniae, UniProt Q9F663).
T1 construct: made in house; host or cells: E. coli BL21(DE3)
Nature of the test: β-lactamase enzyme inhibition assay, KPC-2 (imipenem substrate). The format is biochemical. The note with it: Class A; imipenem substrate, 300 nm; read-out: KPC-2. The method, boiled down:
(§1)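 Native untagged β-lactamases were expressed in E. coli BL21(DE3), then purified by cation exchange and gel filtration. Enzyme was preincubated with inhibitor for 15 min at 37 °C before substrate was added. Imipenem (A300) served KPC-2 and cefotaxime (A260) served SHV-5. IC50 was taken from initial hydrolysis rates relative to no-inhibitor controls.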

The target of the next test is T2, SHV-5 (Klebsiella pneumoniae, UniProt P0A3M1).
T2 construct: made in house; host or cells: E. coli BL21(DE3)
As to the kind of experiment: β-lactamase enzyme inhibition assay, SHV-5 (cefotaxime substrate). The format is biochemical. The gist of the method: as §1

A further test addresses OXA-48 (UniProt Q6XEC0). As to the kind of experiment: β-lactamase enzyme inhibition assay, Class D oxacillinase. The format is biochemical. To be noted: read-out: OXA-48.
The test system of test [1] is E. cloacae expressing the Class C P99. Nature of the test: Broth microdilution MIC assay with ceftazidime, E. cloacae P99. The format is cell-based. To be noted: Fixed CAZ (ceftazidime) 4 μg/mL; E. cl. 144200 p99 AmpC. The text has this:
To determine the ability of test compounds to potentiate the inhibition of the growth of bacterial strains that produce beta-lactamase enzymes in the presence of a β-lactam antibiotic, classic cell based broth microdilution MIC assays were employed. Six bacteria strains producing beta-lactamase enzymes were used: E. coli expressing the Class A Extended Spectrum Beta-Lactamase (ESBL) CTX-M-15, E. cloacae expressing the Class C P99, K. pneumoniae expressing the Class A carbapenemase KPC-2, P. aeruginosa expressing the Class B carbapenemase VIM-2, K. pneumoniae expressing the class A carbapenemase KPC-2 and the class B carbapenemase VIM-4, and K. pneumoniae producing the Class D carbapenemase OXA-48. The assay was conducted in Cation Adjusted Mueller Hinton Broth (CAMHB, BD #212322, BD Diagnostic Systems, Sparks, Md.). Bacteria strains were grown for 3-5 hours in CAMBH broth. Test compounds (Examples 1-94) were added to a microtiter plate in 2-fold serial dilutions in CAMHB in a final concentration range of 16 μg/mL to 0.125 μg/ml. An overlay of CAMHB containing a Beta-lactam was added to the compounds at a final static concentration of 4 μg/ml. […] In addition to the titration of test compounds the MICs of a panel of control beta-lactams is also tested to ensure the strains are behaving consistently from test to test. Once the test compound and antibiotics are added the plates can be inoculated according to CLSI broth microdilution method. After inoculation the plates are incubated for 16-20 hours at 37° C. then the Minimal Inhibitory Concentration (MIC) of the test compound is determined visually.
Using the methodology described above, examples of the current invention were evaluated for their ability to inhibit the growth of β-lactamase-producing bacteria in the presence of a β-lactam antibiotic.

For test [2], the system named is K. pneumoniae expressing the Class A carbapenemase KPC-2. As to the kind of experiment: Broth microdilution MIC assay with meropenem, K. pneumoniae KPC-2. The note with it: Fixed Mero (meropenem) 4 μg/mL; K. p. 156319 KPC-3. The format is cell-based. The gist of the method: (§2)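 Visual MIC readout of the test compound after 16-20 hours at 37° C, measured in the presence of a constant 4 μg/ml β-lactam. Compound concentrations spanned 16 to 0.125 μg/mL in 2-fold steps in cation-adjusted Mueller Hinton broth.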
A general note: In broth dilution the organism is exposed to a series of concentrations in liquid medium.

Test [3] has as its system K. pneumoniae producing the Class D carbapenemase OXA-48. As to the kind of experiment: Broth microdilution MIC assay with meropenem, K. pneumoniae OXA-48. The format is cell-based. To be noted: Fixed Mero (meropenem) 4 μg/mL; K. p. 11978 OXA-48. The method, boiled down: as §2
For the next test, the target named is T3, AmpC (Enterobacter cloacae, UniProt P05364).
T3 construct: made in house; host or cells: E. coli BL21(DE3)
As to the kind of experiment: β-lactamase enzyme inhibition assay, p99 AmpC (nitrocefin substrate). The format is biochemical. The method, boiled down:
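Native untagged β-lactamases were expressed in E. coli BL21(DE3), then purified by cation exchange and gel filtration. Enzyme was preincubated with inhibitor for 15 min at 37 °C before substrate was added. IC50 was taken from initial hydrolysis rates relative to no-inhibitor controls.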

Test [4] has as its system E. coli expressing the Class A Extended Spectrum Beta-Lactamase (ESBL) CTX-M-15. As to the kind of experiment: Broth microdilution MIC assay with ceftazidime, E. coli CTX-M-15. The format is cell-based. To be noted: Fixed CAZ (ceftazidime) 4 μg/mL; E. coli ESBL4 CTX-M-15. The method, boiled down: as §2
The test system of test [5] is K. pneumoniae expressing the class A carbapenemase KPC-2 and the class B carbapenemase VIM-4. Nature of the test: Broth microdilution MIC assay with meropenem, K. pneumoniae KPC-2 and VIM-4. The format is cell-based. To be noted: Fixed Mero (meropenem) 4 μg/mL; K. p. A-1797 KPC-2 VIM-4. The gist of the method:
as §2

Another test deals with T4, VIM-2 (Escherichia coli, UniProt Q5U7L7).
T4 construct: made in house; host or cells: E. coli BL21(DE3)
As to the kind of experiment: β-lactamase enzyme inhibition assay, VIM-2 (nitrocefin substrate). The format is biochemical. The note with it: Class B; nitrocefin substrate, 486 nm; read-out: VIM-2. The gist of the method:
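Nitrocefin hydrolysis, read at 486 nm over 10 min, served as the measure of VIM-2 activity. The enzyme had been incubated with compound for 15 min at 37 °C before 100 μM substrate was added, and IC50 values were fitted from percent inhibition of the initial rate.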

Test [6] deals with P. aeruginosa expressing the Class B carbapenemase VIM-2. Nature of the test: Broth microdilution MIC assay with meropenem, P. aeruginosa VIM-2. The format is cell-based. The note with it: Fixed Mero (meropenem) 4 μg/mL; P. aerug. 2775 VIM-2. The gist of the method: as §2

T2 sequence (P0A3M1 22-286): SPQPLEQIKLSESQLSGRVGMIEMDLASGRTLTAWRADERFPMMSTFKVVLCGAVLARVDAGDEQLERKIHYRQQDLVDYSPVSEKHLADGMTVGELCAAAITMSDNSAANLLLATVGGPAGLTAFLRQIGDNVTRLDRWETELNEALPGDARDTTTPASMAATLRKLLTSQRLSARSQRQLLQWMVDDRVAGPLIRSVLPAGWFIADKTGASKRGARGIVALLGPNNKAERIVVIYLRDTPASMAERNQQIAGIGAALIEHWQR
T3 sequence (P05364 21-381): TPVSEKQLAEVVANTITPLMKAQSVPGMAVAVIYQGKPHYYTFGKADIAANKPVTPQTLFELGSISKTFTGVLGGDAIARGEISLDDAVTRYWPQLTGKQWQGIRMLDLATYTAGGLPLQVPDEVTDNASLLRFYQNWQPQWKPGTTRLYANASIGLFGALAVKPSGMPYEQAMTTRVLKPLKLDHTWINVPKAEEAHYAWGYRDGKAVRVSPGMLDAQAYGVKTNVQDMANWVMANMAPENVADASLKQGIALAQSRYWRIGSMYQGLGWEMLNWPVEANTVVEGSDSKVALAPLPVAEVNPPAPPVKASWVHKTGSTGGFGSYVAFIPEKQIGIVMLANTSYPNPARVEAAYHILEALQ
T1 sequence (Q9F663 25-293, looked up): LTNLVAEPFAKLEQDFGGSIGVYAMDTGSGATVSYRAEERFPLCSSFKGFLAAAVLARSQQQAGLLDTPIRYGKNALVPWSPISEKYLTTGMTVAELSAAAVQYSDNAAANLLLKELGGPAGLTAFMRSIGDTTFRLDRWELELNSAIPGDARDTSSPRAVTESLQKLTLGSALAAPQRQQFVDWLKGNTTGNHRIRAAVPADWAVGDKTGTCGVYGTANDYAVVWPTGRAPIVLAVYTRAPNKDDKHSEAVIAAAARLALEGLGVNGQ

As for `O=C(Cc1nnnn1CCF)N[C@H]1Cc2cccc(C(=O)O)c2OB1O` [Example 101, (R)-3-(2-(1-(2-fluoroethyl)-1H-tetrazol-5-yl)acetamido)-2-hydroxy-3,4-dihydro-2H-benzo[e][1,2]oxaborinine-8-carboxylic acid], the IC50 on KPC-2 is under 100 nM; against SHV-5, under 100 nM; at OXA-48 it was under 100 nM; on AmpC, under 100 nM; on VIM-2, 100 to 1000 nM. For the same molecule, the “MIC (μg/mL) of Exemplary Compounds in presence of fixed β-lactams: E. cl. 144200 p99 AmpC” value (from here on “MIC (μg/mL) … E. cl. 144200 p99 AmpC”) in test [1] is reported as “C (C represents an MIC of <1 μg/mL)”. The “MIC (μg/mL) of Exemplary Compounds in presence of fixed β-lactams: K. p. 156319 KPC-3” value (shortened to “MIC (μg/mL) … K. p. 156319 KPC-3”) in test [2] is “B (B represents an MIC between 1 and 16 μg/mL inclusive)”. In addition, in [3], the “MIC (μg/mL) of Exemplary Compounds in presence of fixed β-lactams: K. p. 11978 OXA-48” value (“MIC (μg/mL) … K. p. 11978 OXA-48” below) is on record as “C (C represents an MIC of <1 μg/mL)”. Also, the “MIC (μg/mL) of Exemplary Compounds in presence of fixed β-lactams: E. coli ESBL4 CTX-M-15” value (from here on “MIC (μg/mL) … E. coli ESBL4 CTX-M-15”) in test [4] is recorded as “C (C represents an MIC of <1 μg/mL)”. The “MIC (μg/mL) of Exemplary Compounds in presence of fixed β-lactams: K. p. A-1797 KPC-2 VIM-4” value (shortened to “MIC (μg/mL) … K. p. A-1797 KPC-2 VIM-4”) in test [5] is “B (B represents an MIC between 1 and 16 μg/mL inclusive)”. Also, the “MIC (μg/mL) of Exemplary Compounds in presence of fixed β-lactams: P. aerug. 2775 VIM-2” value (from here on “MIC (μg/mL) … P. aerug. 2775 VIM-2”) in test [6] was “C (C represents an MIC of <1 μg/mL)”.

As for `NC1CN(C(=O)c2cn(CC(=O)N[C@H]3Cc4cccc(C(=O)O)c4OB3O)nn2)C1` [Example 80, (R)-3-(2-(4-(3-aminoazetidine-1-carbonyl)-1H-1,2,3-triazol-1-yl)acetamido)-2-hydroxy-3,4-dihydro-2H-benzo[e][1,2]oxaborinine-8-carboxylic acid], the IC50 was under 100 nM on KPC-2; under 100 nM against SHV-5; 100 to 1000 nM at OXA-48; under 100 nM on AmpC; 100 to 1000 nM on VIM-2. Besides, the “MIC (μg/mL) … E. cl. 144200 p99 AmpC” value in test [1] is “C (C represents an MIC of <1 μg/mL)”. Moreover, in [2], the “MIC (μg/mL) … K. p. 156319 KPC-3” value is “B (B represents an MIC between 1 and 16 μg/mL inclusive)”. The “MIC (μg/mL) … K. p. 11978 OXA-48” value in test [3] was “B (B represents an MIC between 1 and 16 μg/mL inclusive)”. Besides, the “MIC (μg/mL) … E. coli ESBL4 CTX-M-15” value in test [4] is on record as “C (C represents an MIC of <1 μg/mL)”. The “MIC (μg/mL) … K. p. A-1797 KPC-2 VIM-4” value in test [5] is “B (B represents an MIC between 1 and 16 μg/mL inclusive)”. Further, in [6], the “MIC (μg/mL) … P. aerug. 2775 VIM-2” value is recorded as “C (C represents an MIC of <1 μg/mL)”.

For the molecule `NCc1nnn(CC(=O)N[C@H]2Cc3cccc(C(=O)O)c3OB2O)c1Cl` [Example 107, (R)-3-(2-(4-(aminomethyl)-5-chloro-1H-1,2,3-triazol-1-yl)acetamido)-2-hydroxy-3,4-dihydro-2H-benzo[e][1,2]oxaborinine-8-carboxylic acid], the IC50 was under 100 nM on KPC-2; 100 to 1000 nM against SHV-5; under 100 nM on OXA-48; under 100 nM against AmpC; under 100 nM on VIM-2. The “MIC (μg/mL) … E. cl. 144200 p99 AmpC” value in test [1] is “B (B represents an MIC between 1 and 16 μg/mL inclusive)”. In test [2], the “MIC (μg/mL) … K. p. 156319 KPC-3” value was “C (C represents an MIC of <1 μg/mL)”. In addition, the “MIC (μg/mL) … K. p. 11978 OXA-48” value in [3] was “B (B represents an MIC between 1 and 16 μg/mL inclusive)”. Also, the “MIC (μg/mL) … E. coli ESBL4 CTX-M-15” value in test [4] is reported as “C (C represents an MIC of <1 μg/mL)”. Also, the “MIC (μg/mL) … K. p. A-1797 KPC-2 VIM-4” value in test [5] is reported as “C (C represents an MIC of <1 μg/mL)”. Moreover, the “MIC (μg/mL) … P. aerug. 2775 VIM-2” value in [6] is listed as “C (C represents an MIC of <1 μg/mL)”.

The record behind these values is patent US11046716B2, “Beta-lactamase inhibitors” (priority 2015, dated 2021).
